Test results: the RepoRT retention time repository
Structures can show the parent of a compound that is named as a salt.

Assay: RP, Restek Raptor Biphenyl, 100 × 2.1 mm, 2.7 µm, 50 °C, 0.4 mL/min, estimated dead time 0.55 min; A: water + 0.1% formic acid, pH 3; B: methanol + 0.1% formic acid, pH 3; gradient (min/%B) 0/5 1.12/5 6.41/99.5 10.01/99.5
Settings: stereoisomer not certain

Row | SMILES | LC retention time
1 | CCC(C)C(=O)NCC(=O)O (stereo not drawn) [N-(2-Methylbutyryl)glycine] | 2.83 min
2 | O=C(O)CNC(=O)C=Cc1ccccc1 [N-(CINNAMOYL)GLYCINE] | 4.42 min
3 | CC(=O)NC(C)C(=O)O (stereo not drawn) [N-ACETYLALANINE] | 1.05 min
4 | CC(=O)NC(CC(N)=O)C(=O)O (stereo not drawn) [N-ACETYLASPARAGINE] | 0.702 min
5 | CC(=O)NC(CC(C)C)C(=O)O (stereo not drawn) [N-ACETYLLEUCINE] | 3.63 min
6 | CSCCC(NC(C)=O)C(=O)O (stereo not drawn) [N-ACETYLMETHIONINE] | 3.04 min
7 | CC(=O)NC(Cc1ccccc1)C(=O)O (stereo not drawn) [N-ACETYLPHENYLALANINE] | 4.06 min
8 | CC(=O)NCCc1c[nH]c2ccc(O)cc12 [N-ACETYLSEROTONIN] | 3.58 min
9 | CC(=O)NC(Cc1c[nH]c2ccccc12)C(=O)O (stereo not drawn) [N-ACETYLTRYPTOPHAN] | 4.12 min
10 | CC(=O)N[C@@H](CC(=O)O)C(=O)O [N-Acetyl-L-aspartic acid] | 0.77 min
11 | CC(=O)N[C@@H](Cc1ccc(O)cc1)C(=O)O [N-Acetyl-L-tyrosine] | 2.88 min
12 | NC(=O)c1ccc[n+](C2OC(COP(=O)([O-])OP(=O)(O)OCC3OC(n4cnc5c(N)ncnc54)C(OP(=O)(O)O)C3O)C(O)C2O)c1 (stereo not drawn) [NADP] | 0.746 min
13 | CCCCCCCCC=CCCCCCCCCCCCCCC(=O)O [Nervonic acid] | 6.93 min
14 | CCN(Cc1ccc(Cl)nc1)C(=C[N+](=O)[O-])NC [Nitenpyram] | 3.63 min
15 | CCCCCCCCCCCCCCCCCCC(=O)O [Nonadecanoic acid] | 6.72 min
16 | CC(CC(=O)O)C1CCC2C3CCC4CC(O)CCC4(C)C3CC(O)C12C (stereo not drawn) [Nor-Desoxycholic Acid] | 6.24 min
17 | CC(CCC(=O)O)C1CCC2C3C(=O)CC4CC(O)CCC4(C)C3CCC12C (stereo not drawn) [Nutriacholic Acid] | 6.42 min
18 | CCCCCCCCCCCCCCCCCCCCCCCCCCCC(=O)O [Octacosanoic acid] | 7.08 min
19 | Cn1c(=O)[nH]c2ncn(C)c2c1=O [PARAXANTHINE] | 3.54 min
20 | CCCCCCCCCCCC=CCCCCC(=O)O [PETROSELINATE] | 6.63 min
21 | CC(=O)Oc1ccccc1 [PHENYL ACETATE] | 2.46 min
22 | O=C(O)Cc1ccccc1 [PHENYLACETATE] | 2.46 min
23 | CC(=O)C1CCC2C3CC=C4CC(OS(=O)(=O)O)CCC4(C)C3CCC12C (stereo not drawn) [PREGNENOLONE SULFATE] | 6.51 min
24 | c1ncc2[nH]cnc2n1 [PURINE] | 1.29 min
25 | O=C(O)c1ccc[nH]1 [PYRROLE-2-CARBOXYLATE] | 3.3 min

Row | SMILES | LC retention time
26 | CCCCCCCCCCCCCCCC(=O)O [Palmitic acid] | 6.54 min
27 | CCCCCCCCCCCCCCCCCCCCCCCCC(=O)O [Pentacosanoic Acid] | 6.98 min
28 | CCCCCCCCCCCCCCC(=O)O [Pentadecanoic acid] | 6.44 min
29 | O=C(O)C(=O)Cc1ccccc1 [Phenylpyruvic acid] | 2.88 min
30 | CC(C)CCCC(C)CCCC(C)CCCC(C)CC(=O)O (stereo not drawn) [Phytanic acid] | 6.68 min
31 | C#CC(C)(C)NC(=O)c1cc(Cl)cc(Cl)c1 [Propyzamide] | 5.6 min
32 | O=C(O)c1cccnc1C(=O)O [QUINOLINATE] | 1 min
33 | Cc1cc2nc3c(=O)[nH]c(=O)nc-3n(CC(O)C(O)C(O)CO)c2cc1C (stereo not drawn) [RIBOFLAVIN] | 4.45 min
34 | CCCCCCC(O)CC=CCCCCCCCC(=O)O (stereo not drawn) [Ricinoleic acid] | 6.18 min
35 | CCCCCCSCC(NC(=O)CCC(N)C(=O)O)C(=O)NCC(=O)O (stereo not drawn) [S-HEXYL-GLUTATHIONE] | 4.59 min
36 | O=C(O)CCCCCCCCC(=O)O [SEBACATE] | 4.87 min
37 | C=CCNC(=O)c1c([Si](C)(C)C)sc(C)c1C [Silthiofam] | 6 min
38 | CCCCCCCCCCCCCCCCCC(=O)O [Stearic acid] | 6.67 min
39 | CCCCCCCCCCCCCCCCCC(=O)OC(CC(=O)[O-])C[N+](C)(C)C [Stearoyl-L-carnitine] | 6.13 min
40 | O=C(O)CCC(=O)O [Succinic acid] | 0.909 min
41 | Cc1nn(-c2cc(NS(C)(=O)=O)c(Cl)cc2Cl)c(=O)n1C(F)F [Sulfentrazone] | 5.29 min
42 | Cn1c(=O)c2[nH]cnc2n(C)c1=O [THEOPHYLLINE] | 3.54 min
43 | CSc1ncnc2nc[nH]c12 [THIOPURINE S-METHYLETHER] | 3.77 min
44 | Cc1cn(C2CC(O)C(COP(=O)(O)O)O2)c(=O)[nH]c1=O (stereo not drawn) [THYMIDINE-MONOPHOSPHATE] | 0.837 min
45 | Cc1cn(C2CC(O)C(CO)O2)c(=O)[nH]c1=O (stereo not drawn) [THYMIDINE] | 2.18 min
46 | NC(=O)C1CCCN1C(=O)C(Cc1cnc[nH]1)NC(=O)C1CCC(=O)N1 (stereo not drawn) [THYROTROPIN RELEASING HORMONE] | 1.99 min
47 | NC(Cc1c[nH]c2ccccc12)C(=O)O (stereo not drawn) [TRYPTOPHAN] | 2.53 min
48 | NC(Cc1ccc(O)cc1)C(=O)O (stereo not drawn) [TYROSINE] | 0.796 min
49 | CC(CCC(=O)NCCS(=O)(=O)O)C1CCC2C3C(O)CC4CC(O)CCC4(C)C3CC(O)C12C (stereo not drawn) [Taurocholic acid sodium salt hydrate] | 5.83 min
50 | CC(CCC(=O)NCCS(=O)(=O)O)C1CCC2C3CCC4CC(O)CCC4(C)C3CC(O)C12C (stereo not drawn) [Taurodeoxycholic acid] | 6.16 min

Row | SMILES | LC retention time
51 | CC(CCC(=O)NCCS(=O)(=O)O)C1CCC2C3CCC4CC(O)CCC4(C)C3CCC12C (stereo not drawn) [Taurolithocholic acid] | 6.47 min
52 | CCc1ccc(C(=O)NN(C(=O)c2cc(C)cc(C)c2)C(C)(C)C)cc1 [Tebufenozide] | 6.04 min
53 | O=C(Nc1ccccc1)Nc1cnns1 [Thidiazuron] | 4.75 min
54 | CC=C(C)C(=O)NCC(=O)O [Tiglyl Glycine] | 2.95 min
55 | O=C(O)CC(CC(=O)O)C(=O)O [Tricarballylic acid] | 0.842 min
56 | CCCCCCCCCCCCCCCCCCCCCCC(=O)O [Tricosanoic acid] | 6.91 min
57 | CC1(C)CCC(=Cc2ccc(Cl)cc2)C1(O)Cn1cncn1 (stereo not drawn) [Triticonazole] | 5.93 min
58 | O=c1cc[nH]c(=O)[nH]1 [URACIL] | 0.702 min
59 | O=c1[nH]c(=O)c2[nH]c(=O)[nH]c2[nH]1 [URATE] | 0.774 min
60 | O=c1[nH]c(=O)c2[nH]cnc2[nH]1 [XANTHINE] | 0.933 min
61 | O=c1[nH]c(=O)c2ncn(C3OC(COP(=O)(O)O)C(O)C3O)c2[nH]1 (stereo not drawn) [XANTHOSINE-MONOPHOSPHATE] | 0.695 min
62 | O=c1[nH]c(=O)c2ncn(C3OC(CO)C(O)C3O)c2[nH]1 (stereo not drawn) [XANTHOSINE] | 1.47 min
63 | O=C(O)c1cc(=O)c2cccc(O)c2[nH]1 [Xanthurenic acid] | 3.14 min
64 | CCCCCCCCCC(O)CC(=O)OC(CC(=O)[O-])C[N+](C)(C)C [[(3R)-3-Hydroxydodecanoyl]-L-carnitine] | 5.15 min
65 | CCCCCCCCCCCCCC(O)CC(=O)OC(CC(=O)[O-])C[N+](C)(C)C [[(3R)-3-Hydroxyhexadecanoyl]-L-carnitine] | 5.77 min
66 | CCCCCC=CCC=CCC=CCC=CCC=CCCC(=O)O [all-cis-4,7,10,13,16-Docosapentaenoic acid] | 6.7 min
67 | CCC=CCC=CCC=CCC=CC/C=C\CCCC(=O)O [cis-5,8,11,14,17-Eicosapentaenoic acid] | 6.56 min
68 | O=C(O)C=C(CC(=O)O)C(=O)O [cis-Aconitic acid] | 0.818 min
69 | CCCCCCCCCC=CC(=O)OC(CC(=O)[O-])C[N+](C)(C)C [trans-2-Dodecenoyl-L-carnitine] | 5.46 min
70 | CCCCCC/C=C/CCCCCCCCCC(=O)O [trans-Vaccenic Acid] | 6.61 min
71 | CC(C)C(=O)C(=O)O [α-Keto Isovaleric Acid Sodium Salt] | 1.26 min
72 | O=C(O)CCC(=O)C(=O)O [α-Ketoglutaric acid] | 0.722 min
73 | CCCCCC=CCC=CCC=CCCCCC(=O)O [γ-Linolenic acid] | 6.54 min
